# Measurements reported in ChEMBL document CHEMBL1201862, “PubChem BioAssay data set” (2004).
#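 All cell lines were grown in 96-well plates and treated with compound for 48 hours. GI50: concentration for 50% inhibition of growth.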 Activity calls are given as the source filed them. No stated cut-off is given here; in the data, active = GI50 up to about 1.1 µM and inactive = higher.
# Legend:
# Assay in all cases: NCI anticancer screen, dose series, 48 h
# HOP-18 = system: HOP-18
# OVCAR-5 = system: OVCAR-5
# SR = system: SR
# SNB-75 = system: SNB-75
# COLO 205 = system: COLO 205
# IGROV-1 = system: IGROV-1
# SN12C = system: SN12C
# TK-10 = system: TK-10
# M14 = system: M14
# SK-MEL-2 = system: SK-MEL-2
# Malme-3M = system: Malme-3M
# U-251 = system: U-251
# LXFL 529 = system: LXFL 529
# HT-29 = system: HT-29
# RXF 393 = system: RXF 393
# UACC-62 = system: UACC-62
# ACHN = system: ACHN
# NCI-H460 = system: NCI-H460
# MOLT-4 = system: MOLT-4
# NCI-H522 = system: NCI-H522
# OVCAR-4 = system: OVCAR-4
# HOP-92 = system: HOP-92
# KM-20L2 = system: KM-20L2
# HCT-15 = system: HCT-15
# LOX IMVI = system: LOX IMVI
# CCRF-CEM = system: CCRF-CEM
# SF-539 = system: SF-539
# SK-MEL-5 = system: SK-MEL-5
# OVCAR-3 = system: OVCAR-3
# A549 = system: A549
# SK-OV-3 = system: SK-OV-3
# XF498 = system: XF498
# K562 = system: K562
# DMS-273 = system: DMS-273
# NCI-H226 = system: NCI-H226
# HOP-62 = system: HOP-62
# DLD-1 = system: DLD-1
# HCT-116 = system: HCT-116
# KM12 = system: KM12
# RPMI-8226 = system: RPMI-8226
# M19-MEL = system: M19-MEL
# CAKI-1 = system: CAKI-1
# DMS-114 = system: DMS-114
# UACC-257 = system: UACC-257
# UO-31 = system: UO-31
# SW-620 = system: SW-620
# SF-268 = system: SF-268
# SNB-19 = system: SNB-19
# HL-60 = system: HL-60
# SK-MEL-28 = system: SK-MEL-28
# 786-0 = system: 786-0
# NCI-H23 = system: NCI-H23
# SNB-78 = system: SNB-78
# SF-295 = system: SF-295
# OVCAR-8 = system: OVCAR-8
# EKVX = system: EKVX
smiles,measurement,setting,value
O=[N+]([O-])c1ccc(N2C[N+](c3ccccc3)=NC(c3ccccc3)=N2)cc1,GI50,HOP-18,21.1 µM (inactive)
same,GI50,OVCAR-5,73.1 µM (inactive)
same,GI50,SR,37.8 µM (inactive)
same,GI50,SNB-75,99.3 µM (inactive)
same,GI50,COLO 205,50.5 µM (inactive)
same,GI50,IGROV-1,41.2 µM (inactive)
same,GI50,SN12C,46.3 µM (inactive)
same,GI50,TK-10,40.7 µM (inactive)
same,GI50,M14,58.1 µM (inactive)
same,GI50,SK-MEL-2,20.5 µM (inactive)
same,GI50,Malme-3M,91.2 µM (inactive)
same,GI50,U-251,32.2 µM (inactive)
same,GI50,LXFL 529,30.2 µM (inactive)
same,GI50,HT-29,43.9 µM (inactive)
same,GI50,RXF 393,54.5 µM (inactive)
same,GI50,UACC-62,26.2 µM (inactive)
same,GI50,ACHN,19.3 µM (inactive)
same,GI50,NCI-H460,39.4 µM (inactive)
same,GI50,MOLT-4,43.5 µM (inactive)
same,GI50,NCI-H522,25.6 µM (inactive)
same,GI50,OVCAR-4,44.5 µM (inactive)
same,GI50,HOP-92,35.7 µM (inactive)
same,GI50,KM-20L2,31.9 µM (inactive)
same,GI50,HCT-15,28.6 µM
same,GI50,LOX IMVI,26.1 µM (inactive)
same,GI50,CCRF-CEM,45.1 µM (inactive)
same,GI50,SF-539,72.3 µM (inactive)
same,GI50,SK-MEL-5,29 µM (inactive)
same,GI50,OVCAR-3,32.2 µM (inactive)
same,GI50,A549,34.6 µM (inactive)
same,GI50,SK-OV-3,48.9 µM (inactive)
same,GI50,XF498,21.4 µM (inactive)
same,GI50,K562,27 µM (inactive)
same,GI50,DMS-273,45.1 µM (inactive)
same,GI50,NCI-H226,> 100 µM (inactive)
same,GI50,HOP-62,17.8 µM (inactive)
same,GI50,DLD-1,32.2 µM (inactive)
same,GI50,HCT-116,23.3 µM (inactive)
same,GI50,KM12,29.4 µM (inactive)
same,GI50,RPMI-8226,39.3 µM (inactive)
same,GI50,M19-MEL,75.3 µM (inactive)
same,GI50,CAKI-1,63 µM (inactive)
same,GI50,DMS-114,22.5 µM (inactive)
same,GI50,UACC-257,38.5 µM (inactive)
same,GI50,UO-31,17.3 µM (inactive)
same,GI50,SW-620,68.4 µM (inactive)
same,GI50,SF-268,29.4 µM (inactive)
same,GI50,SNB-19,38.6 µM (inactive)
same,GI50,HL-60,38.2 µM (inactive)
same,GI50,SK-MEL-28,> 100 µM (inactive)
same,GI50,786-0,59.7 µM (inactive)
same,GI50,NCI-H23,34 µM (inactive)
same,GI50,SNB-78,> 100 µM (inactive)
same,GI50,SF-295,35.6 µM (inactive)
same,GI50,OVCAR-8,43.9 µM (inactive)
FC(F)(F)c1nc(-c2ccccc2Cl)[nH]c1C(F)(F)F,GI50,HOP-18,0.364 µM (active)
same,GI50,OVCAR-5,0.746 µM (active)
same,GI50,SR,0.456 µM (active)
same,GI50,SNB-75,1.07 µM (active)
same,GI50,COLO 205,0.542 µM (active)
same,GI50,IGROV-1,1.15 µM (inactive)
same,GI50,SN12C,0.705 µM (active)
same,GI50,TK-10,1.13 µM (inactive)
same,GI50,M14,1.12 µM (inactive)
same,GI50,SK-MEL-2,0.501 µM (active)
same,GI50,EKVX,0.56 µM (active)
same,GI50,Malme-3M,0.861 µM (active)
same,GI50,U-251,0.318 µM (active)
same,GI50,LXFL 529,0.935 µM (active)
same,GI50,HT-29,0.94 µM (active)
same,GI50,RXF 393,0.798 µM (active)
same,GI50,UACC-62,0.766 µM (active)
same,GI50,ACHN,0.841 µM (active)
same,GI50,NCI-H460,0.859 µM (active)
same,GI50,MOLT-4,0.991 µM (active)
same,GI50,OVCAR-4,0.664 µM (active)
same,GI50,HOP-92,0.408 µM (active)
same,GI50,KM-20L2,0.619 µM (active)
same,GI50,HCT-15,0.875 µM
same,GI50,LOX IMVI,0.459 µM (active)
same,GI50,CCRF-CEM,0.504 µM (active)
same,GI50,SF-539,0.893 µM (active)
same,GI50,SK-MEL-5,0.348 µM (active)
same,GI50,OVCAR-3,0.223 µM (active)
same,GI50,A549,0.7 µM (active)
same,GI50,SK-OV-3,0.841 µM (active)
same,GI50,XF498,0.621 µM (active)
same,GI50,K562,1.03 µM (active)
same,GI50,DMS-273,0.873 µM (active)
same,GI50,NCI-H226,0.61 µM (active)
same,GI50,HOP-62,0.394 µM (active)
same,GI50,DLD-1,1.13 µM (inactive)
same,GI50,HCT-116,0.729 µM (active)
same,GI50,KM12,0.975 µM (active)
same,GI50,RPMI-8226,2.66 µM (inactive)
same,GI50,M19-MEL,0.697 µM (active)
same,GI50,CAKI-1,0.679 µM (active)
same,GI50,DMS-114,0.673 µM (active)
same,GI50,UACC-257,0.646 µM (active)
same,GI50,UO-31,0.675 µM (active)
same,GI50,SW-620,1.15 µM (inactive)
same,GI50,SF-268,1.23 µM (inactive)
same,GI50,SNB-19,0.571 µM (active)
same,GI50,HL-60,0.406 µM (active)
same,GI50,SK-MEL-28,1.21 µM (inactive)
same,GI50,786-0,1.08 µM (active)
same,GI50,NCI-H23,0.687 µM (active)
same,GI50,SNB-78,1.06 µM (active)
same,GI50,SF-295,0.681 µM (active)
same,GI50,OVCAR-8,1.11 µM (active)
